{"source": "patent US11970473B2", "about": "“Nootkatone derivatives and methods of using the same” (Arkansas State University—Jonesboro, priority 2021, dated 2024)", "key": {"UACC-62": {"system": "UACC-62", "assay": "NCI-60 cancer screen", "assay_type": "cell-based, human", "settings": "UACC-62, Melanoma; 10 μM"}, "COLO 205": {"system": "COLO 205", "assay": "NCI-60 cancer screen", "assay_type": "cell-based, human", "settings": "COLO 205, Colon Cancer; 10 μM"}, "EKVX": {"system": "EKVX", "assay": "NCI-60 cancer screen", "assay_type": "cell-based, human", "settings": "Non-Small Cell Lung Cancer, 10 μM"}, "HOP-62": {"system": "HOP-62", "assay": "NCI-60 cancer screen", "assay_type": "cell-based, human", "settings": "HOP-62, Non-Small Cell Lung Cancer; 10 μM"}, "SK-MEL-28": {"system": "SK-MEL-28", "assay": "NCI-60 cancer screen", "assay_type": "cell-based, human", "settings": "SK-MEL-28, Melanoma; 10 μM"}, "HS 578T": {"system": "HS 578T", "assay": "NCI-60 cancer screen", "assay_type": "cell-based, human", "settings": "Breast Cancer, 10 μM"}, "MALME-3M": {"system": "MALME-3M", "assay": "NCI-60 cancer screen", "assay_type": "cell-based, human", "settings": "Melanoma, 10 μM"}, "SW-620": {"system": "SW-620", "assay": "NCI-60 cancer screen", "assay_type": "cell-based, human", "settings": "SW-620, Colon Cancer; 10 μM"}, "NCI-H460": {"system": "NCI-H460", "assay": "NCI-60 cancer screen", "assay_type": "cell-based, human", "settings": "NCI-H460, Non-Small Cell Lung Cancer; 10 μM"}, "BT-549": {"system": "BT-549", "assay": "NCI-60 cancer screen", "assay_type": "cell-based, human", "settings": "BT-549, Breast Cancer; 10 μM"}, "IGROV1": {"system": "IGROV1", "assay": "NCI-60 cancer screen", "assay_type": "cell-based, human", "settings": "IGROV1, Ovarian Cancer; 10 μM"}, "SF-539": {"system": "SF-539", "assay": "NCI-60 cancer screen", "assay_type": "cell-based, human", "settings": "SF-539, CNS Cancer; 10 μM"}, "[1]": {"system": "S. aureus ATCC 33591 (Sa91)", "assay": "Minimal inhibitory concentration (MIC) assay", "assay_type": "cell-based", "settings": "Staphylococcus aureus, ATCC33591; S. aureus ATCC 33591, antibiotic-resistant strain; read-out: Antimicrobial activity (MIC) Sa91", "how_it_was_run": "(§1)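 CLSI broth microdilution; top concentration 50 μg/ml, 2-fold serial dilution; n = 3 replicates.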"}, "[2]": {"system": "S. aureus ATCC 700699 (Sa99)", "assay": "Minimal inhibitory concentration (MIC) assay", "assay_type": "cell-based", "settings": "Staphylococcus aureus, ATCC700699; S. aureus ATCC 700699, antibiotic-resistant strain; read-out: Antimicrobial activity (MIC) Sa99", "how_it_was_run": "as §1"}, "[3]": {"system": "S. aureus BAA-2312 (Sa12)", "assay": "Minimal inhibitory concentration (MIC) assay", "assay_type": "cell-based", "settings": "Staphylococcus aureus, BAA2312; S. aureus BAA-2312, antibiotic-resistant strain; read-out: Antimicrobial activity (MIC) Sa12", "how_it_was_run": "as §1"}, "[4]": {"system": "Enterococcus faecium ATCC 700221 (Em21)", "assay": "Minimal inhibitory concentration (MIC) assay", "assay_type": "cell-based", "how_it_was_run": "as §1"}, "[5]": {"system": "Enterococcus faecalis ATCC 29212 (Es12)", "assay": "Minimal inhibitory concentration (MIC) assay", "assay_type": "cell-based", "settings": "ATCC29212; Enterococcus faecalis ATCC 29212; read-out: Antimicrobial activity (MIC) Es12", "how_it_was_run": "as §1"}, "[6]": {"system": "S. aureus ATCC 33592 (Sa92)", "assay": "Minimal inhibitory concentration (MIC) assay", "assay_type": "cell-based", "settings": "Staphylococcus aureus, ATCC33592; S. aureus ATCC 33592, antibiotic-resistant strain; read-out: Antimicrobial activity (MIC) Sa92", "how_it_was_run": "as §1"}, "[7]": {"system": "B. subtilis ATCC 6623 (Bs)", "assay": "Minimal inhibitory concentration (MIC) assay", "assay_type": "cell-based", "settings": "Bacillus subtilis, ATCC6623; B. subtilis ATCC 6623; read-out: Antimicrobial activity (MIC) Bs", "how_it_was_run": "as §1"}, "[8]": {"system": "S. epidermidis 700296 (Se)", "assay": "Minimal inhibitory concentration (MIC) assay", "assay_type": "cell-based", "settings": "Staphylococcus epidermidis, S. epidermidis 700296; read-out: Antimicrobial activity (MIC) Se", "how_it_was_run": "as §1"}, "[9]": {"system": "S. aureus ATCC 25923 (Sa23)", "assay": "Minimal inhibitory concentration (MIC) assay", "assay_type": "cell-based", "settings": "Staphylococcus aureus, ATCC25923; S. aureus ATCC 25923, antibiotic susceptible strain; read-out: Antimicrobial activity (MIC) Sa23", "how_it_was_run": "as §1"}, "NCI-H226": {"system": "NCI-H226", "assay": "NCI-60 cancer screen", "assay_type": "cell-based, human", "settings": "NCI-H226, Non-Small Cell Lung Cancer; 10 μM"}, "UACC-257": {"system": "UACC-257", "assay": "NCI-60 cancer screen", "assay_type": "cell-based, human", "settings": "UACC-257, Melanoma; 10 μM"}, "A498": {"system": "A498", "assay": "NCI-60 cancer screen", "assay_type": "cell-based, human", "settings": "A498, Renal Cancer; 10 μM"}, "TK-10": {"system": "TK-10", "assay": "NCI-60 cancer screen", "assay_type": "cell-based, human", "settings": "TK-10, Renal Cancer; 10 μM"}, "SF-268": {"system": "SF-268", "assay": "NCI-60 cancer screen", "assay_type": "cell-based, human", "settings": "SF-268, CNS Cancer; 10 μM"}, "OVCAR-5": {"system": "OVCAR-5", "assay": "NCI-60 cancer screen", "assay_type": "cell-based, human", "settings": "OVCAR-5, Ovarian Cancer; 10 μM"}, "OVCAR-4": {"system": "OVCAR-4", "assay": "NCI-60 cancer screen", "assay_type": "cell-based, human", "settings": "OVCAR-4, Ovarian Cancer; 10 μM"}, "ACHN": {"system": "ACHN", "assay": "NCI-60 cancer screen", "assay_type": "cell-based, human", "settings": "Renal Cancer, 10 μM"}, "SR": {"system": "SR", "assay": "NCI-60 cancer screen", "assay_type": "cell-based, human", "settings": "Leukemia, 10 μM"}, "SF-295": {"system": "SF-295", "assay": "NCI-60 cancer screen", "assay_type": "cell-based, human", "settings": "SF-295, CNS Cancer; 10 μM"}, "A549/ATCC": {"system": "A549/ATCC", "assay": "NCI-60 cancer screen", "assay_type": "cell-based, human", "settings": "Non-Small Cell Lung Cancer, 10 μM"}, "U251": {"system": "U251", "assay": "NCI-60 cancer screen", "assay_type": "cell-based, human", "settings": "U251, CNS Cancer; 10 μM"}, "SNB-75": {"system": "SNB-75", "assay": "NCI-60 cancer screen", "assay_type": "cell-based, human", "settings": "SNB-75, CNS Cancer; 10 μM"}}, "data": [{"smiles": "C=C(C)[C@@H]1CC=C2c3sc(-c4ccc(O)cc4)nc3C[C@@H](C)[C@]2(C)C1", "note": "[Compound 15, 4-[(5R,5aS,7R)-7-isopropenyl-5,5a-dimethyl-5,6,7,8-tetrahydro-4H-benzo[g][1,3]benzothiazol-2-yl]phenol]", "values": [{"measurement": "Growth Percent", "setting": "UACC-62", "value": 93.02, "unit": "%"}, {"measurement": "Growth Percent", "setting": "COLO 205", "value": 118.41, "unit": "%"}, {"measurement": "Growth Percent", "setting": "EKVX", "value": 101.37, "unit": "%"}, {"measurement": "Growth Percent", "setting": "HOP-62", "value": 95.96, "unit": "%"}, {"measurement": "Growth Percent", "setting": "SK-MEL-28", "value": 106.43, "unit": "%"}, {"measurement": "Growth Percent", "setting": "HS 578T", "value": 100.94, "unit": "%"}, {"measurement": "Growth Percent", "setting": "MALME-3M", "value": 99.38, "unit": "%"}, {"measurement": "Growth Percent", "setting": "SW-620", "value": 103.38, "unit": "%"}, {"measurement": "Growth Percent", "setting": "NCI-H460", "value": 104.69, "unit": "%"}, {"measurement": "Growth Percent", "setting": "BT-549", "value": 115.53, "unit": "%"}, {"measurement": "Growth Percent", "setting": "IGROV1", "value": 102.22, "unit": "%"}, {"measurement": "Growth Percent", "setting": "SF-539", "value": 101.06, "unit": "%"}, {"measurement": "MIC", "setting": "[1]", "value": 6.2, "unit": "µg/mL"}, {"measurement": "MIC", "setting": "[2]", "value": 12.5, "unit": "µg/mL"}, {"measurement": "MIC", "setting": "[3]", "value": 12.5, "unit": "µg/mL"}, {"measurement": "Antimicrobial activity (MIC) Em21", "setting": "[4]; Enterococcus faecium ATCC 700221", "value": 3.12, "unit": "µg/mL"}, {"measurement": "MIC", "setting": "[4]; Enterococcus faecium, ATCC700221, Enterococcus faecium ATCC 700221, read-out: Antimicrobial activity (MIC) Em21", "value": 3.12, "unit": "µg/mL"}, {"measurement": "MIC", "setting": "[5]", "value": 12.5, "unit": "µg/mL"}, {"measurement": "MIC", "setting": "[6]", "value": 6.25, "unit": "µg/mL"}, {"measurement": "MIC", "setting": "[7]", "value": 6.25, "unit": "µg/mL"}, {"measurement": "MIC", "setting": "[8]", "value": 6.25, "unit": "µg/mL"}, {"measurement": "MIC", "setting": "[9]", "value": "> 100", "unit": "µg/mL"}, {"measurement": "Growth Percent", "setting": "NCI-H226", "value": 94.10, "unit": "%"}, {"measurement": "Growth Percent", "setting": "UACC-257", "value": 100.07, "unit": "%"}, {"measurement": "Growth Percent", "setting": "A498", "value": 107.24, "unit": "%"}, {"measurement": "Growth Percent", "setting": "TK-10", "value": 118.28, "unit": "%"}, {"measurement": "Growth Percent", "setting": "SF-268", "value": 100.98, "unit": "%"}, {"measurement": "Growth Percent", "setting": "OVCAR-5", "value": 106.63, "unit": "%"}, {"measurement": "Growth Percent", "setting": "OVCAR-4", "value": 95.29, "unit": "%"}, {"measurement": "Growth Percent", "setting": "ACHN", "value": 100.09, "unit": "%"}, {"measurement": "Growth Percent", "setting": "SR", "value": 113.66, "unit": "%"}, {"measurement": "Growth Percent", "setting": "SF-295", "value": 92.61, "unit": "%"}, {"measurement": "Growth Percent", "setting": "A549/ATCC", "value": 95.55, "unit": "%"}, {"measurement": "Growth Percent", "setting": "U251", "value": 102.73, "unit": "%"}, {"measurement": "Growth Percent", "setting": "SNB-75", "value": 87.74, "unit": "%"}]}]}
